Values quoted from earlier work, collected in patent US9072749B2, “Treatment of age-related macular degeneration” (priority 2007, dated 2015).
Read-outs that look alike come from different tables or passages of the source.

Assays:
[1] = system: choroidal neovascularization; settings: in vivo
[2] = system: dogs; settings: oral dosing in dogs
[3] = oral dosing in dogs
[4] = system: D1/D5 receptor; settings: anesthetized rabbits

In the case of `CC1=C(/C=C/C(C)=C/C=C/C(C)=C/C=C/C=C(C)/C=C/C=C(C)/C=C/C2=C(C)C(=O)C(O)CC2(C)C)C(C)(C)CC(O)C1=O` (stereo not shown) [Astaxanthin], the choroidal neovascularization [1] is given as “inhibit choroidal neovascularization”.
In the case of `Oc1ccc(C2CNCCc3c2cc(O)c(O)c3Cl)cc1` (stereo not shown) [Fenoldopam], the “duration of drug blood level and increase in renal blood flow” value ([2]; FIGS. 2a and 2b) is listed as “relatively short duration” and the “plasma fenoldopam (drug blood) level” value [3] is listed as “rapidly gives high drug blood level”.
For `CCNC(=O)Oc1ccc([C@H]2CNCCc3c2cc(OC(=O)NCC)c(OC(=O)NCC)c3Cl)cc1` [SKF 10508], the “time for which the increase in renal blood flow is sustained” value ([2]; FIGS. 3A and 3B) is listed as “greater than 6 hours”, the “plasma fenoldopam (drug blood) level” value [3] is listed as “more gradual increase of drug blood level” and the “plasma fenoldopam (drug blood) level” value ([3]; listed as SK&F 105058) is listed as “release fenoldopam slowly after oral absorption”.
In the case of `NCCc1ccc(O)c(O)c1` [dopamine], the choroidal vasodilation [4] is given as “caused choroidal vasodilation”.
